Assay results: patent publication US10633338B2, “Binding Function 3 (BF3) site compounds as therapeutics and methods for their use” (THE UNIVERSITY OF BRITISH COLUMBIA, priority 2014, dated 2020)
Read-outs that look alike come from different tables or passages of the source. Each block holds one compound with its values, some of them ahead of it.

Experiments:
androgen receptor (AR) = target: T1, androgen receptor (AR) (Homo sapiens, UniProt P10275, T878A); experiment: eGFP cellular AR transcription assay; type: cell-based
T1 construct: stably transfected eGFP-expressing LNCaP human prostate cancer cells (LN-ARR2PB-eGFP) containing an androgen responsive probasin-derived promoter; endogenous in cells; host or cells: LNCaP (LN-ARR2PB-eGFP)
T1 sequence (P10275 1-920 T878A): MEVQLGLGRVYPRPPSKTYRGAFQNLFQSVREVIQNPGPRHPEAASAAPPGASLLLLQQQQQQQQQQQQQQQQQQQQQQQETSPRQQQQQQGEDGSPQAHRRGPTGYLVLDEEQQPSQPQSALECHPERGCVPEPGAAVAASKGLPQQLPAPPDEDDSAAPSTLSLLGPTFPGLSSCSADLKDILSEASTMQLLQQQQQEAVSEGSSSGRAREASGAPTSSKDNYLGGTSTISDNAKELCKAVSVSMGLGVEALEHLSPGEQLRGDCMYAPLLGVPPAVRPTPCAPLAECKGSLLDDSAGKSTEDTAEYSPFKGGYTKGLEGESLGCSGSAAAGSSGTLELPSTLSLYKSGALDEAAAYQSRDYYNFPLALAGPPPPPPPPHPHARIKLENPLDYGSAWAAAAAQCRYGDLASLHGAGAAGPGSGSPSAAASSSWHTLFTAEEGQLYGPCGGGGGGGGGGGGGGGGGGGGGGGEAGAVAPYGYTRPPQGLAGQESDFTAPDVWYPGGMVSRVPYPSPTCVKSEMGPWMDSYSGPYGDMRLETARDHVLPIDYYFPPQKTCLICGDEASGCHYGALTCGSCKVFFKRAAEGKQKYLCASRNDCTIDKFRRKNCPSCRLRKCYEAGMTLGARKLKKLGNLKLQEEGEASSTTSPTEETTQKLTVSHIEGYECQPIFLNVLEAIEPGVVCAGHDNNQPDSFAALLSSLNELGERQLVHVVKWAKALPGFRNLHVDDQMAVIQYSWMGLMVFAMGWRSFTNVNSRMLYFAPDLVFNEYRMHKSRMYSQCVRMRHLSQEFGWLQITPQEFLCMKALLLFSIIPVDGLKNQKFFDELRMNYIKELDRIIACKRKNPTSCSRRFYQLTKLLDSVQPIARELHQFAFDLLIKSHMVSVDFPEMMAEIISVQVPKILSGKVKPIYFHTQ
Description: After 5 days, the cells were plated into a 96-well plate (35,000 cells/well) with 0.1 nM of the synthetic androgen R1881 and increasing concentrations (0-100 μM) of compound.
After 5 days, the cells were plated into a 96-well plate (35,000 cells/well) with 0.1 nM R1881 and increasing concentrations (0-100 μM) of compound.
In this assay, the expression of eGFP is under the control of an androgen responsive probasin-derived promoter and can quantify AR transcriptional activity.

PSA = experiment: Prostate Surface Antigen (PSA) assay, PSA excreted into the media; type: cell-based, human; conditions: same plates as eGFP assay
Description: The evaluation of PSA excreted into the media was performed in parallel to the eGFP assay using the same plates (see above description). After the cells were incubated for 3 days 150 μl of the media was taken from each well, and added to 150 μl of PBS.

[1] = LN-ARR2PBeGFP LNCaP cells, 0.1 nM R1881, 3 days incubation
[2] = PSA excreted into media, 3 days incubation
[3] = LN-ARR2PBeGFP LNCaP cells, 0.1 nM R1881, 3 days incubation, read-out: eGFP IC50
[4] = Homo sapiens, 72 h, PSA excreted into media, 3 days incubation, read-out: PSA IC50
[5] = LN-ARR2PB-eGFP LNCaP cells, 0.1 nM R1881, 3 days, 0-100 μM compound, read-out: IC50 (eGFP)
[6] = Homo sapiens, 72 h, media after 3 days, read-out: IC50 (PSA)

SMILES: Cc1cc(-c2c[nH]c3c(C)c(F)ccc23)nc2ccccc12 [Compound 13659]
- eGFP IC50 (androgen receptor (AR); [1]): Inactive
- PSA IC50 (PSA; [2]): Inactive

SMILES: Cc1cccc2c(-c3ccc4c([N+](=O)[O-])cccc4n3)c[nH]c12 [Compound 13632]
- eGFP IC50 (androgen receptor (AR); [1]): Inactive
- PSA IC50 (PSA; [2]): Inactive

SMILES: NC(=O)c1cccc2nc(-c3c[nH]c4c(Cl)cc(F)cc34)ccc12 [Compound 13746]
- eGFP IC50 (androgen receptor (AR); [1]): Inactive
- PSA IC50 (PSA; [2]): Inactive

SMILES: Cc1cccc2c(-c3ccc(-c4ccccc4)cc3)c[nH]c12 [13 733]
- IC50 (androgen receptor (AR); [5]): 3.81 µM
- IC50 (PSA; [6]): 0.919 µM

SMILES: Cc1c(F)ccc2c(-c3ccc4cccc(F)c4n3)c[nH]c12 [Compound 13635]
- eGFP IC50 (androgen receptor (AR); [1]): Inactive
- PSA IC50 (PSA; [2]): Inactive

SMILES: Cc1[nH]c2ccccc2c1SCc1ccccc1F [Compound 13411]
- IC50 (androgen receptor (AR); [3]): 2.4 µM
- IC50 (PSA; [4]): 2.4 µM

SMILES: Cc1ccccc1CSc1c(C)[nH]c2ccccc12 [Compound 13222]
- IC50 (androgen receptor (AR); [3]): 0.95 µM
- IC50 (PSA; [4]): 0.74 µM

SMILES: Cc1cccc2c(-c3ccc4scnc4c3)c[nH]c12 [13 758]
- IC50 (eGFP) (androgen receptor (AR); LN-ARR2PB-eGFP LNCaP cells, 0.1 nM R1881, 3 days, 0-100 μM compound): IC50 (eGFP) = Inactive
- IC50 (PSA) (PSA; media after 3 days): IC50 (PSA) = Inactive

SMILES: Brc1cccc2c(-c3cnc4ccccc4c3)c[nH]c12 [13 653]
- IC50 (androgen receptor (AR); [5]): 1.13 µM
- IC50 (PSA; [6]): 0.29 µM

SMILES: c1ccc(-c2ccc(-c3c[nH]c4cccnc34)cc2)cc1 [13 735]
- IC50 (androgen receptor (AR); [5]): 3.86 µM
- IC50 (PSA; [6]): 1.43 µM

SMILES: Clc1cccc2nc(-c3c[nH]c4c(Cl)cccc34)ccc12 [Compound 13748]
- eGFP IC50 (androgen receptor (AR); [1]): Inactive
- PSA IC50 (PSA; [2]): Inactive

SMILES: O=[N+]([O-])c1cccc2nc(-c3c[nH]c4c(Cl)cc(F)cc34)ccc12 [Compound 13667]
- eGFP IC50 (androgen receptor (AR); [1]): Inactive
- PSA IC50 (PSA; [2]): Inactive

SMILES: Cc1cc2ccccc2nc1-c1c[nH]c2c(C)cccc12 [Compound 13596]
- eGFP IC50 (androgen receptor (AR); [1]): Inactive
- PSA IC50 (PSA; [2]): Inactive

SMILES: N#Cc1cc(F)cc2c(-c3ccc4ccc(F)cc4n3)c[nH]c12 [Compound 13730]
- IC50 (androgen receptor (AR); [3]): 0.149 µM
- IC50 (PSA; [4]): 0.198 µM

SMILES: Fc1ccc2nc(-c3c[nH]c4cc(F)c(F)cc34)ccc2c1 [Compound 13614]
- IC50 (androgen receptor (AR); [3]): 1.12 µM
- IC50 (PSA; [4]): 0.597 µM

SMILES: FC(F)(F)c1ccc(-c2c[nH]c3ccccc23)nc1 [13 741]
- IC50 (androgen receptor (AR); [5]): 0.29 µM
- IC50 (PSA; [6]): 0.29 µM

SMILES: Cc1cccc2c(-c3nc4ccccc4s3)c[nH]c12 [13 760]
- IC50 (androgen receptor (AR); [5]): 0.1 µM
- IC50 (PSA; media after 3 days, read-out: IC50 (PSA)): 0.52 µM

SMILES: Cc1cccc2c(-c3nc4ccccc4cc3O)c[nH]c12 [Compound 13661]
- eGFP IC50 (androgen receptor (AR); [1]): Inactive
- PSA IC50 (PSA; [2]): Inactive

Results, then the compound that gave them:

- IC50 (androgen receptor (AR); [3]): 3.7 µM
- IC50 (PSA; [4]): 3.19 µM
SMILES: CC1(C)c2ccc(Br)cc2NC1c1c[nH]c2c(OCc3ccccc3)cccc12 (centres unmarked) [Compound 13543]

- IC50 (androgen receptor (AR); [3]): 2.5 µM
- IC50 (PSA; [4]): 1.54 µM
SMILES: CC1(C)c2ccccc2NC1c1c[nH]c2ccc(Br)cc12 (centres unmarked) [Compound 13510]

- IC50 (androgen receptor (AR); [3]): 0.48 µM
- IC50 (PSA; [4]): 0.24 µM
SMILES: c1ccc2c(c1)C[C@H](c1c[nH]c3ccccc13)N2 [Compound 13163-B]

- IC50 (androgen receptor (AR); [3]): 2.1 µM
- IC50 (PSA; [4]): 0.11 µM
SMILES: c1ccc2[nH]c(-c3c[nH]c4ccccc34)cc2c1 [Compound 13127]

- IC50 (androgen receptor (AR); [3]): 9.3 µM
- IC50 (PSA; [4]): 6.76 µM
SMILES: COc1ccc(/N=C/c2c[nH]c3ccccc23)cc1 [Compound 13300]

- IC50 (androgen receptor (AR); [3]): 2.6 µM
- IC50 (PSA; [4]): 1.91 µM
SMILES: Brc1ccc2[nH]cc(-c3ccc4ccccc4n3)c2c1 [Compound 13683]

- IC50 (androgen receptor (AR); [5]): 1.5 µM
- IC50 (PSA; [6]): 1.87 µM
SMILES: Cc1ccc2[nH]cc(C3Nc4ccccc4C3(C)C)c2c1 (centres unmarked) [13 535]

- IC50 (androgen receptor (AR); [3]): 4.9 µM
- IC50 (PSA; [4]): 6.65 µM
SMILES: CC1(C)c2cc(Br)ccc2NC1c1cn(S(=O)(=O)C[C@]23CC[C@@H](CC2=O)C3(C)C)c2ccccc12 (some centres unmarked) [Compound 13524]

- IC50 (androgen receptor (AR); [3]): 0.4 µM
- IC50 (PSA; [4]): 0.26 µM
SMILES: CC1(C)c2ccccc2NC1c1c[nH]c2cc(Cl)ccc12 (centres unmarked) [Compound 13521]

- IC50 (androgen receptor (AR); [3]): 0.06 µM
- IC50 (PSA; [4]): 0.14 µM
SMILES: c1ccc2nc(-c3c[nH]c4ccccc34)ccc2c1 [Compound 13562]
